Measured values: ChEMBL document CHEMBL1136999, “Discovery of novel phosphonate derivatives as hepatitis C virus NS3 protease inhibitors” (Bioorg Med Chem Lett, 2009)

Tests used:
[1] = Inhibition of HCV NS3 protease; set-up: species or system Hepacivirus hominis
[2] = Apparent systemic clearance in dog at 1.1 mg/kg, iv relative to liver blood flow; type: ADME, organism-based, Canis lupus familiaris; set-up: dose 1.1 mg/kg, route intravenous; details: in vivo
[3] = system: Hepatitis C virus; assay: Antiviral activity against HCV in human HuH7 cells by replicon assay; type: functional, organism-based, Hepacivirus hominis; details: Huh-7
[4] = Cytotoxicity against human HuH7 cells; type: cell-based, Huh-7
[5] = Apparent permeability from apical to basolateral side in human Caco-2 cells; type: ADME, cell-based
[6] = Oral bioavailability in dog at 2.7 mg/kg; type: ADME, organism-based, Canis lupus familiaris; details: in vivo

SMILES | IC50 [1] [nM] | clearance [2] [mL/min/kg] | EC50 [3] [nM] | CC50 [4] [nM] | Papp A→B [5] [×10⁻⁶ cm/s] | bioavailability [6] [%]
C=CC1C[C@]1(NC(=O)[C@@H]1C[C@@H](Oc2cc(-c3csc(NC(C)C)n3)nc3cc(OC)ccc23)CN1C(=O)[C@@H](NC(=O)OC1CCCC1)C(C)(C)C)P(=O)(OCOC(=O)OCC)OCOC(=O)OCC (stereo partly specified) | 280 | 28.3 | 39 | – | – | –
C=CC1C[C@]1(NC(=O)[C@@H]1C[C@@H](Oc2cc(-c3csc(NC(C)C)n3)nc3cc(OC)ccc23)CN1C(=O)[C@@H](NC(=O)OC1CCCC1)C(C)(C)C)C(=O)O (stereo partly specified) | 3 | – | 6 | > 50000 | – | –
C=CC1C[C@]1(NC(=O)[C@@H]1C[C@@H](Oc2cc(-c3csc(NC(C)C)n3)nc3cc(OC)ccc23)CN1C(=O)[C@@H](NC(=O)OC1CCCC1)C(C)(C)C)P(=O)(O)O (stereo partly specified) | 0.9 | – | 92 | > 50000 | 0.2 | 1
C=CC1C[C@]1(NC(=O)[C@@H]1C[C@@H](Oc2cc(-c3csc(NC(C)C)n3)nc3cc(OC)ccc23)CN1C(=O)[C@@H](NC(=O)OC1CCCC1)C(C)(C)C)P(=O)(O)OCC (stereo partly specified) | 7 | – | 360 | > 50000 | – | –
C=CC1C[C@]1(NC(=O)[C@@H]1C[C@@H](Oc2cc(-c3csc(NC(C)C)n3)nc3cc(OC)ccc23)CN1C(=O)[C@@H](NC(=O)OC1CCCC1)C(C)(C)C)P(=O)(OCOC(=O)OCC1CC1)OCOC(=O)OCC1CC1 (stereo partly specified) | 85 | – | 41 | – | – | –
